Structures can show the parent of a compound that is named as a salt. Where two headings read alike, the source gives them in different places.
Key:
[1] = Protocol: The stability of the pharmaceutical compositions of Example 3 were tested. The stability studies were conducted on packaged epinephrine salts at 25° C./RH 60% and 40° C./RH 75% conditions, as well as samples without packaging and exposed to light (4500 Lux) for one month. The appearance, assay content, and related substances were examined at 5, 7, 14 and 30 days.
The assay content was tested using Sartorius balances (Model SQP), an INESA pH meter (Model PHS-3E), a Thermo HPLC (UltiMate 3000 System, UV Wavelength: 205 nm), and Phenomenex Luna columns (5 μm C18 (2), 4.6×250 mm). The column temperature was 40° C., and the autosampler temperature was room temperature. The injection volume was 5 μL.
(§1) Mobile Phase A was prepared by weighing 4.0 g tetramethylammonium bisulfate (MERYER, Batch No. 77957139) and 1.1 sodium 1-heptasulfonate (Admas-beta, Batch No. P1343755), and transferring the materials to a flask. 2 mL of 0.1 mol/L EDTA solution (Brand: Sinopharm Chemical Reagent Co., Ltd., Batch No. 20150410) was added to the flask and the volume was adjusted to 950 mL using water. The solution was mixed and adjusted to a pH of 3.5 with 0.1N sodium hydroxide solution (Brand: Enox, Batch No. 20161201). Mobile Phase B was prepared using methanol. The isocratic elution was used in a proportion of A/B of 85/15. The run time was 10 minutes.
The assay content was analyzed by dissolving 20 mg of each sample to be examined in 50 mL of Mobile Phase A (0.4 mg/mL) as assay test solution. The sample was used and tested right after it was ready and was protected from light.
The purity was tested using Sartorius balances (Model SQP), an INESA pH meter (Model PHS-3E), a Thermo HPLC (UltiMate 3000 System, UV Wavelength: 205 nm), and PhenomenexSynergi columns (4 μm Polar-RP 80 A 250×4.6 mm). The column temperature was 30° C., and the autosampler temperature was room temperature. The injection volume was 5 μL.
Mobile Phase A was prepared by weighing 1.136 g of potassium dihydrogen orthophosphate (Brand: CNW, Batch No. A1040040) and 1.74 g of dipotassium hydrogen orthophosphate (Brand: Ourchem, Batch No. 20160219) and transferring into 1000 mL of water. The pH was adjusted to 3.0±0.05 with orthophosphoric acid (Brand: Ourchem, Batch No. 4112K060). The solution was filtered through a 0.45 μm membrane and degassed. Mobile Phase B was prepared using methanol. The run time was 50 minutes.
The purity was analyzed by dissolving 10 mg of each sample to be examined in 25 mL of Mobile Phase A (0.4 mg/mL) as purity and related substance test solution. The sample was used and tested right after it was ready and was protected from light.

[2] = sublingual tablet of Example 3, 10 mg epinephrine base, receptor pH 7.4, 37° C.
Protocol: The in-vitro permeability of the pharmaceutical compositions of Example 3 were tested. The tests were conducted using drug transdermal diffusion test instruments (Brand Huanghai, Model No. RJY-6B), Sartorius balances (Model SQP), an INESA pH meter (Model PHS-3E), a Thermo HPLC (UltiMate 3000 System, UV Wavelength: 205 nm), and Phenomenex Luna columns (5 μm C18 (2), 4.6×250 mm). The column temperature was 40° C. and the autosampler temperature was room temperature. The injection volume was 5 μL.
as §1
The in vitro diffusion of epinephrine salts were evaluated using Franz cells with an OD of 20 mm and reservoir volume of 7 mL. Dialysis membranes (Spectra/Por® dialysis membranes with 1,000 Da MWCO) were used to simulate sublingual mucous membrane in the vitro permeability tests. The assay content of the active components was detected in receiving pools. A receptor chamber with a magnetic stirrer was filled with phosphate buffer solution (pH 7.4) as the diffusion medium. The water bath was set at 37° C., and water was circulated in the Franz cells.
Each tablet was placed at the center of the donor chamber on the membrane at T0, and 2 mL of the artificial saliva (Brand: Biomart, Brand No. GL0305) was added to facilitate tablet disintegration and dissolution. Aliquots of 1 mL were withdrawn from the receptor chamber at 10, 30, 60, 90, and 120 min. The volumes withdrawn were replenished with fresh medium. Samples were transferred to HPLC vials for HPLC analysis.

[3] = 20 mg in 20 mL water, 25° C.
Protocol: The tests were conducted using Sartorius balances (Model SQP) and a pH meter (Brand: INESA, Model No. PHS-3E). 20 mg of the sample was weighed and transferred into a 20 mL volumetric flask with the remainder of the volume comprising water. The solution was mixed. The pH meter was calibrated with pH 4.0 and pH 6.8 standard buffer solutions at 25° C.

[4] = physchem
Protocol: (§2) The tests were conducted using Sartorius balances (Model SQP), a Thermo HPLC (UltiMate 3000 System, UV Wavelength: 205 nm), and Phenomenex Luna columns (5 μm C18 (2), 4.6×250 mm). The column temperature was 40° C. and the autosampler temperature was room temperature. The injection volume was 5 μL.
as §1, with “using ethanol.” for “using methanol.”, “was 8” for “was 10”
A standard solution was used comprising 10 mg of the standard dissolved in 10 mL of water. The test solution solutions were prepared and water was added at 25±2° C. Every 5 minutes, the solution was sonicated for 30 seconds. The dissolution was observed within 30 minutes to make sure the solution was saturated. The solution was filtered through a 0.45 μm membrane and the solution was diluted to test.

[5] = physchem; conditions: titrated with 0.1 mol/L NaOH
Protocol: The tests were conducted using Sartorius balances (Model SQP) and a potentiometric titrator (Brand: Methrom, Model No. 905 Titrando). 0.17 g of the sample was weighed and transferred into a 50 mL volumetric flask with the remainder of the volume comprising deonized water. The solution was mixed. The solution was titrated with a 0.1 mol/L NaOH solution using a pH indicator to indicate the end point.

[6] = physchem; conditions: n-octanol / pH 3.47 buffer
Protocol: as §2
as §1, with “using ethanol.” for “using methanol.”, “was 8” for “was 10”
A hydrogen disodium phosphate solution was prepared by weighing 7.1 g of hydrogen disodium phosphate (Brand: Sinopharm Chemical Reagent Co., Ltd., Batch No. 20150910). A citric acid solution was prepared by weighing 5.25 g of hydrated citric acid (Brand: General-Reagent, Batch No. 5949-29-1) and dissolving it in 1000 mL of water. A pH 3.47 buffer solution was prepared by adjusting the pH of the hydrogen disodium phosphate solution to 3.47 with the citric acid solution. An n-octanol buffer solution was prepared by mixing 100 mL of n-octanol (Brand: Chinasun Specialty Products Co., Ltd., Batch No. 20160601) and 100 mL of the pH 3.47 buffer solution, vibrated for 24 hours, which sat for an hour to separate the n-octanol phase and the pH 3.47 buffer phase.
10 mg of the sample was dissolved in 10 mL of the saturated n-octanol solution and mixed completely. 10 mL of the saturated pH 3.47 buffer solution was added and vortexed at 3000 r/min for 1 hour. 1 mL of solution was pipetted from the n-octanol and pH 3.47 phase after an hour. A standard solution was prepared containing 1 mg/mL of the standard in diluent. An LOQ solution was prepared from about 0.1% of the standard solution. An n-octanol phase solution was diluted with 1 mL of methanol to test. The pH 3.47 phase solution was injected directly. The partition coefficient was calculated using the following formula:
[formula] wherein Co is the equilibrium concentration of solute in oil phase, and Cw is the equilibrium concentration of solute in water phase.

[7] = light 4500 Lux, under air, 5 days
[8] = light 4500 Lux, under air, 7 days
[9] = light 4500 Lux, under air, 14 days
[10] = light 4500 Lux, under air, 30 days

In the case of `CNC[C@H](O)c1ccc(O)c(O)c1` [epinephrine base, epinephrine], the “Related substance (%)” value ([1]; 25° C./60% RH, 0 days) is reported as 0.13%, the “Content (%)” value ([1]; 25° C./60% RH, 5 days) is reported as 100.03% and the “Related substance (%)” value ([1]; 25° C./60% RH, 5 days) is reported as 0.14%. For the same compound, the “Content (%)” value ([1]; 25° C./60% RH, 7 days) was 99.73%, the “Related substance (%)” value ([1]; 25° C./60% RH, 7 days) was 0.14% and the “Content (%)” value ([1]; 25° C./60% RH, 14 days) was 99.84%. The “Related substance (%)” value ([1]; 25° C./60% RH, 14 days) was 0.12%, the “Content (%)” value ([1]; 25° C./60% RH, 30 days) was 99.78% and the “Related substance (%)” value ([1]; 25° C./60% RH, 30 days) was 0.14%. The “Related substance (%)” value ([1]; 40° C./75% RH, 0 days) was 0.13%, the “Related substance (%)” value ([1]; 40° C./75% RH, 5 days) was 0.16% and the “Content (%)” value ([1]; 40° C./75% RH, 7 days) was 100.67%. The “Related substance (%)” value ([1]; 40° C./75% RH, 7 days) was 0.15%, the “Content (%)” value ([1]; 40° C./75% RH, 14 days) was 98.97% and the “Related substance (%)” value ([1]; 40° C./75% RH, 14 days) was 0.17%. The “Content (%)” value ([1]; 40° C./75% RH, 30 days) was 100.62%, the “Related substance (%)” value ([1]; 40° C./75% RH, 30 days) was 0.20% and the “Related substance (%)” value ([1]; light 4500 Lux, under air, 0 days) was 0.13%. The “Content (%)” value [1, 7] was 100.53%, the “Related substance (%)” value [1, 7] was 0.15% and the “Content (%)” value [1, 8] was 99.27%. For the same compound, the “Related substance (%)” value [1, 8] was 0.18%, the “Content (%)” value [1, 9] was 99.21% and the “Related substance (%)” value [1, 9] was 0.18%. For the same compound, the “Content (%)” value [1, 10] was 98.24%, the “Related substance (%)” value [1, 10] was 0.21% and the “Diffusion content (%) 120 min” value [2] was 10.5%.
In the case of `CNC[C@H](O)c1ccc(O)c(O)c1` [epinephrine hydrochloride], the “Diffusion content (%) 120 min” value ([2]; hydrochloride) is reported as 44.0%.
With epinephrine fumarate the pH [3] was 3.77, the “Solubility” value ([4]; water, 25±2° C.) was 38.9 mg/mL and the pKa [5] was 4.28. The “Diffusion content (%) 120 min” value [2] was 54.4% and the LogP [6] was −3.00.
For epinephrine hemi sulfate, the pH [3] was 7.14 and the “Solubility” value [4] was 17.7 mg/mL.
